Results reported in article PMC10726357, “New Genetically Engineered Derivatives of Antibacterial Darobactins Underpin Their Potential for Antibiotic Development” (Journal of Medicinal Chemistry, 2023).
In brackets after ≈: the same amount, converted by molar mass. Where no end group is shown, it is not given here.

Assays:
[1] = test system: P. aeruginosa PA01; assay: Antibacterial activity screening of darobactin-containing crude extracts; assay type: cell-based, Pseudomonas aeruginosa; design: key: two-fold serial dilution from 1:15 (A) (concentration factor: 6.67×); low activity A B C D E F G H high activity; low activity A B C D E F G H high activity; low activity A B C D E F G H high activity; low activity A B C D E F G H high activity; low activity A B C D E F G H high activity; low activity A B C D E F G H high activity; to 1:3,840 (H) (concentration factor: 0.05×); settings: derivative-containing crude extract, two-fold serial dilution
Description: (§1) The extracts of production clones for all derivatives were prepared and tested for their antibacterial activity against E. coli ATCC 25922, P. aeruginosa PA01, K. pneumoniae DSM-30104, and A. baumannii DSM-30008.
(§2) The antibacterial activity of novel darobactins was determined by the evaluation of the minimum inhibitory concentration (MIC) as previously described for crude extracts and for pure darobactin analogues.[12]

[2] = test system: Acinetobacter baumannii DSM-30008; assay: as above; assay type: cell-based; design: key: two-fold serial dilution from 1:15 (A) (concentration factor: 6.67×); low activity A B C D E F G H high activity; low activity A B C D E F G H high activity; low activity A B C D E F G H high activity; low activity A B C D E F G H high activity; low activity A B C D E F G H high activity; low activity A B C D E F G H high activity; to 1:3,840 (H) (concentration factor: 0.05×); settings: derivative-containing crude extract, two-fold serial dilution
Description: as §1, §2

[3] = test system: Klebsiella pneumoniae DSM-30104; assay: as above; assay type: cell-based; design: key: two-fold serial dilution from 1:15 (A) (concentration factor: 6.67×); low activity A B C D E F G H high activity; low activity A B C D E F G H high activity; low activity A B C D E F G H high activity; low activity A B C D E F G H high activity; low activity A B C D E F G H high activity; low activity A B C D E F G H high activity; to 1:3,840 (H) (concentration factor: 0.05×); settings: derivative-containing crude extract, two-fold serial dilution
Description: as §1, §2

[4] = test system: Escherichia coli ATCC 25922; assay: as above; assay type: cell-based; design: key: two-fold serial dilution from 1:15 (A) (concentration factor: 6.67×); low activity A B C D E F G H high activity; low activity A B C D E F G H high activity; low activity A B C D E F G H high activity; low activity A B C D E F G H high activity; low activity A B C D E F G H high activity; low activity A B C D E F G H high activity; to 1:3,840 (H) (concentration factor: 0.05×); settings: derivative-containing crude extract, two-fold serial dilution
Description: as §1, §2

[5] = biological target: T1, EcBamA (E. coli BamA barrel domain) (Escherichia coli, UniProt P0A940, C690S/C700S); assay: Microscale thermophoresis (MST) KD determination; assay type: binding
T1 construct: The E. coli BamA barrel domain (BamA-β) (residues 421–810, C690S, C700S); made in house
Description: As an alternative to the previously published methods using isothermal titration calorimetry (ITC), we established a KD determination assay using microscale thermophoresis (MST) to enable higher throughput.
Microscale thermophoresis (MST) (serial no. 201709-BR-N024, Monolith NT.115 Micro Scale Thermophoresis, NanoTemper Technologies GmbH) was performed according to the standard protocol from the manufacturer NanoTemper Technologies GmbH using a Monolith His-Tag Labeling Kit RED-tris-NTA second-generation kit. The buffer used was HEPES (50 mM), pH 7.6, MgCl2 (5 mM), and Tween (0.05%). […] A 1:1 dilution of the ligand over 16 samples was performed using a stock of ligand (in water) diluted in HEPES buffer. Nonhydrophobic capillary tubes were used. A pretest to check for the labeling and compound fluorescence was performed for every sample followed by a binding affinity (KD) determination. Each sample was measured after 15 min of incubation at RT and analyzed in MO Control version 1.6.

[6] = test system: E. coli ATCC25922; assay type: cell-based, Escherichia coli; settings: ATCC25922
Description: as §2

[7] = test system: HepG2
[8] = test system: P. aeruginosa PA01; assay type: cell-based, Pseudomonas aeruginosa
Description: as §2

[9] = test system: K. pneumoniae DSM-30104; assay type: cell-based, Klebsiella pneumoniae; settings: DSM-30104
Description: as §2

[10] = test system: A. baumannii DSM-30008; assay type: cell-based, Acinetobacter baumannii; settings: DSM-30008
Description: as §2

| Compound | antimicrobial activity of crude extract: highest dilution factor with full growth inhibition, P. aeruginosa PA01 [1] | antimicrobial activity of crude extract: highest dilution factor with full growth inhibition, A. baumannii DSM-30008 [2] | antimicrobial activity of crude extract: highest dilution factor with full growth inhibition, K. pneumoniae DSM-30104 [3] | antimicrobial activity of crude extract: highest dilution factor with full growth inhibition, E. coli ATCC25922 [4] | Kd [5] [µM] | MIC E. coli [ATCC25922] [6] [µg/mL] | IC50 HepG2 [7] [µg/mL] | MIC P. aeruginosa [PA01] [8] [µg/mL] | MIC K. pneumoniae [DSM-30104] [9] [µg/mL] | MIC A. baumannii [DSM-30008] [10] [µg/mL] |
| --- | --- | --- | --- | --- | --- | --- | --- | --- | --- | --- |
| D67: novel darobactin derivative, core peptide WYWTKRW (not fully specified (bridges); also: darobactin bicyclic crosslinks) | D | E | C | C |  |  |  |  |  |  |
| C[C@@H](O)[C@@H]1NC(=O)[C@H]2NC(=O)[C@H](CC(N)=O)NC(=O)[C@@H](N)Cc3c[nH]c4c(cccc34)O[C@@H]2c2c[nH]c3cc(ccc23)[C@H](CCNC(=N)N)[C@@H](C(=O)N[C@@H](CCCNC(=N)N)C(=O)N[C@@H](Cc2c[nH]c3ccccc23)C(=O)O)NC1=O [D39] |  |  |  |  | 10.9 ± 3.5 | 4 to 8 | >37 | 2 (≈ 1.79 µM) | 4 to 8 | 0.5 to 2 |
| C[C@@H](O)[C@@H]1NC(=O)[C@H]2NC(=O)[C@H](CO)NC(=O)[C@@H](N)Cc3c[nH]c4c(cccc34)O[C@@H]2c2c[nH]c3cc(ccc23)[C@H](CCCN)[C@@H](C(=O)N[C@@H](CCCNC(=N)N)C(=O)N[C@@H](Cc2c[nH]c3ccccc23)C(=O)O)NC1=O [D64] |  |  |  |  | 5.1 ± 0.7 | 4 (≈ 3.77 µM) | > 37 | 2 (≈ 1.88 µM) | 16 (≈ 15.1 µM) | 0.5 (≈ 0.471 µM) |
| D68: novel darobactin derivative, core peptide WLWTKRW (not fully specified (bridges); also: darobactin bicyclic crosslinks) | B | D | B | B |  |  |  |  |  |  |
| D73: novel darobactin derivative, core peptide WDWSKRW (also: darobactin bicyclic crosslinks) | B | C | A | A |  |  |  |  |  |  |
| D71: novel darobactin derivative, core peptide WEWSKRW (also: darobactin bicyclic crosslinks) | B-C | E | C | C |  |  |  |  |  |  |
| D70: novel darobactin derivative, core peptide WSWSKRW (also: darobactin bicyclic crosslinks) | D | E | C | C |  |  |  |  |  |  |
| C[C@@H](O)[C@@H]1NC(=O)[C@H]2NC(=O)[C@H](CC(N)=O)NC(=O)[C@@H](N)Cc3c[nH]c4c(cccc34)O[C@@H]2c2c[nH]c3cc(ccc23)[C@H](CCCN)[C@@H](C(=O)N[C@@H](CCC(N)=O)C(=O)N[C@@H](Cc2c[nH]c3ccccc23)C(=O)O)NC1=O [D74] |  |  |  |  |  | 4 (≈ 3.77 µM) | > 37 | 2 (≈ 1.89 µM) | 16 (≈ 15.1 µM) | 4 (≈ 3.77 µM) |
| D72: novel darobactin derivative, core peptide WKWSKRW (also: darobactin bicyclic crosslinks) | B | C | B | C |  |  |  |  |  |  |
| D59: novel darobactin derivative, core peptide WKWTKRW (not fully specified (bridges); also: darobactin bicyclic crosslinks) | A | A | A | A |  |  |  |  |  |  |
| D65: novel darobactin derivative, core peptide WSWTKKW (not fully specified (bridges); also: darobactin bicyclic crosslinks) | B | D | A | A |  |  |  |  |  |  |
| D62: novel darobactin derivative, core peptide WRWTKRW (not fully specified (bridges); also: darobactin bicyclic crosslinks) |  | A | B |  |  |  |  |  |  |  |
| C[C@@H](O)[C@@H]1NC(=O)[C@H]2NC(=O)[C@H](CC(=O)O)NC(=O)[C@@H](N)Cc3c[nH]c4c(cccc34)O[C@@H]2c2c[nH]c3cc(ccc23)[C@H](CCCN)[C@@H](C(=O)N[C@@H](CCCNC(=N)N)C(=O)N[C@@H](Cc2c[nH]c3ccccc23)C(=O)O)NC1=O [D60] |  |  |  |  |  | 16 (≈ 14.7 µM) | > 37 | 4 (≈ 3.67 µM) | 16 (≈ 14.7 µM) | 2 (≈ 1.84 µM) |
| D63: novel darobactin derivative, core peptide WVWTKRW (not fully specified (bridges); also: darobactin bicyclic crosslinks) | A | C | B |  |  |  |  |  |  |  |
| D66: novel darobactin derivative, core peptide WNWTKCW (not fully specified (bridges); also: darobactin bicyclic crosslinks) | B | C | A | A |  |  |  |  |  |  |
